Laboratory results published in patent US20140147467A1, “Novel broth medium and blood free solid media” (priority 2012, published 2014).
Converted amounts (≈) assume the structure as drawn. Where two headings read alike, the source gives them in different places.

Tested on: P. salmonis
Experiment: MIC by broth micro dilution in Austral-SRS broth
Assay type: cell-based
Details: Piscirickettsia salmonis
[1] = P. salmonis ATCC VR-1361 (type strain), 18° C., read-out: MIC value
[2] = P. salmonis isolates (austral-005), 18° C., n=10, read-out: MIC values

Compound	MIC	MIC [1]	MIC [2]
CN(C)[C@@H]1C(O)=C(C(N)=O)C(=O)[C@@]2(O)C(O)=C3C(=O)c4c(O)cccc4[C@@](C)(O)[C@H]3[C@H](O)[C@@H]12 [oxytetracycline]	0.124 µg/mL (≈ 0.269 µM)	0.25 to 0.5 µg/mL (≈ 0.543 to 1.09 µM)	0.125 to 2.5 µg/mL (≈ 0.271 to 5.43 µM)
CS(=O)(=O)c1ccc([C@@H](O)[C@@H](CF)NC(=O)C(Cl)Cl)cc1 [florfenicol]	0.5 µg/mL (≈ 1.4 µM)	0.25 to 0.5 µg/mL (≈ 0.698 to 1.4 µM)	0.25 to 0.5 µg/mL (≈ 0.698 to 1.4 µM)
